Reference: PubChem BioAssay AID2060606 (Molecular Pharmacology Branch, DTP, NCI, 2025)

Tested on: 922993-354-T-J3-PDC complex spheroids, viability, % test/control
Test: Anticancer human tumor 922993-354-T-J3-PDC patient-derived endometrial carcinoma cell line growth inhibition [CLK]
Conditions: for IC50: curve of first compound; for viability, T/C: stronger effect = lower value
Method in brief: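 Patient-derived tumor cells grown as complex spheroids with HUVEC endothelial cells and mesenchymal stem cells, treated with drug combinations. Concentrations descend in half-log steps from near clinical Cmax, or from 10 microM if Cmax unknown.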

[1] = second compound 0.0316 µM, first compound 0.0316 µM
[2] = second compound 0.0316 µM, first compound 0.1 µM
[3] = second compound 0.0316 µM, first compound 0.316 µM
[4] = second compound 0.0316 µM, first compound 1 µM
[5] = second compound 0.1 µM, first compound 0.0316 µM
[6] = second compound 0.1 µM, first compound 0.1 µM
[7] = second compound 0.1 µM, first compound 0.316 µM
[8] = second compound 0.1 µM, first compound 1 µM
[9] = second compound 0.316 µM, first compound 0.0316 µM
[10] = second compound 0.316 µM, first compound 0.1 µM
[11] = second compound 0.316 µM, first compound 0.316 µM
[12] = second compound 0.316 µM, first compound 1 µM
[13] = second compound 1 µM, first compound 0.0316 µM
[14] = second compound 1 µM, first compound 0.1 µM
[15] = second compound 1 µM, first compound 0.316 µM
[16] = second compound 1 µM, first compound 1 µM
[17] = second compound 3.16 µM, first compound 0.0316 µM
[18] = second compound 3.16 µM, first compound 0.1 µM
[19] = second compound 3.16 µM, first compound 0.316 µM
[20] = second compound 3.16 µM, first compound 1 µM
[21] = second compound 10 µM, first compound 0.0316 µM
[22] = second compound 10 µM, first compound 0.1 µM
[23] = second compound 10 µM, first compound 0.316 µM
[24] = second compound 10 µM, first compound 1 µM
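Further: spheroids exposed to the agents for 7 days before readout.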

## CCCS(=O)(=O)Nc1ccc(F)c(C(=O)c2c[nH]c3ncc(-c4ccc(Cl)cc4)cc23)c1F + CNC(=O)c1ccc(Nc2nc(OC3CCCC3)c3c(-c4ccc5nc(C)oc5c4)c[nH]c3n2)c(OC)c1
Second compound 0.0316 µM
  IC50: > 10000 nM
Second compound 0.1 µM
  IC50: > 10000 nM
Second compound 0.316 µM
  IC50: 650 nM
Second compound 1 µM
  IC50: < 31.6 nM
Second compound 3.16 µM
  IC50: < 31.6 nM
Second compound 10 µM
  IC50: < 31.6 nM
[1]
  viability, T/C: 96.5%
[2]
  viability, T/C: 93.9%
[3]
  viability, T/C: 109%
[4]
  viability, T/C: 103%
Second compound 0.0316 µM, first compound 3.16 µM
  viability, T/C: 90.9%
Second compound 0.0316 µM, first compound 10 µM
  viability, T/C: 74.4%
[5]
  viability, T/C: 110%
[6]
  viability, T/C: 103%
[7]
  viability, T/C: 109%
[8]
  viability, T/C: 113%
Second compound 0.1 µM, first compound 3.16 µM
  viability, T/C: 85.2%
Second compound 0.1 µM, first compound 10 µM
  viability, T/C: 67.6%
[9]
  viability, T/C: 70.8%
[10]
  viability, T/C: 73.4%
[11]
  viability, T/C: 57.9%
[12]
  viability, T/C: 46.5%
Second compound 0.316 µM, first compound 3.16 µM
  viability, T/C: 49.1%
Second compound 0.316 µM, first compound 10 µM
  viability, T/C: 40.2%
[13]
  viability, T/C: 40.2%
[14]
  viability, T/C: 32.9%
[15]
  viability, T/C: 32.8%
[16]
  viability, T/C: 35.4%
Second compound 1 µM, first compound 3.16 µM
  viability, T/C: 31.8%
Second compound 1 µM, first compound 10 µM
  viability, T/C: 24.3%
[17]
  viability, T/C: 32%
[18]
  viability, T/C: 31.3%
[19]
  viability, T/C: 30.3%
[20]
  viability, T/C: 30.2%
Second compound 3.16 µM, first compound 3.16 µM
  viability, T/C: 27.7%
Second compound 3.16 µM, first compound 10 µM
  viability, T/C: 24%
[21]
  viability, T/C: 30.3%
[22]
  viability, T/C: 31.7%
[23]
  viability, T/C: 27.4%
[24]
  viability, T/C: 29.6%
Second compound 10 µM, first compound 3.16 µM
  viability, T/C: 26.7%
Second compound 10 µM, first compound 10 µM
  viability, T/C: 23.1%

## CCc1c2c(nc3ccc(O)cc13)-c1cc3c(c(=O)n1C2)COC(=O)[C@]3(O)CC + CNC(=O)c1ccc(Nc2nc(OC3CCCC3)c3c(-c4ccc5nc(C)oc5c4)c[nH]c3n2)c(OC)c1
Second compound 0.0316 µM
  IC50: 19.5 nM
Second compound 0.1 µM
  IC50: 22.9 nM
Second compound 0.316 µM
  IC50: 16.6 nM
Second compound 1 µM
  IC50: < 3.16 nM
Second compound 3.16 µM
  IC50: < 3.16 nM
Second compound 10 µM
  IC50: < 3.16 nM
Second compound 0.0316 µM, first compound 0.00316 µM
  viability, T/C: 101%
Second compound 0.0316 µM, first compound 0.01 µM
  viability, T/C: 85.3%
[1]
  viability, T/C: 24.8%
[2]
  viability, T/C: 15.1%
[3]
  viability, T/C: 22.3%
[4]
  viability, T/C: 25.9%
Second compound 0.1 µM, first compound 0.00316 µM
  viability, T/C: 99.2%
Second compound 0.1 µM, first compound 0.01 µM
  viability, T/C: 79.2%
[5]
  viability, T/C: 40.6%
[6]
  viability, T/C: 15.1%
[7]
  viability, T/C: 20.7%
[8]
  viability, T/C: 29.9%
Second compound 0.316 µM, first compound 0.00316 µM
  viability, T/C: 64.2%
Second compound 0.316 µM, first compound 0.01 µM
  viability, T/C: 63.4%
[9]
  viability, T/C: 32.6%
[10]
  viability, T/C: 16%
[11]
  viability, T/C: 21.4%
[12]
  viability, T/C: 31.4%
Second compound 1 µM, first compound 0.00316 µM
  viability, T/C: 32.1%
Second compound 1 µM, first compound 0.01 µM
  viability, T/C: 39.8%
[13]
  viability, T/C: 13.2%
[14]
  viability, T/C: 13.6%
[15]
  viability, T/C: 20.3%
[16]
  viability, T/C: 18.5%
Second compound 3.16 µM, first compound 0.00316 µM
  viability, T/C: 34.4%
Second compound 3.16 µM, first compound 0.01 µM
  viability, T/C: 28.1%
[17]
  viability, T/C: 14.6%
[18]
  viability, T/C: 13.8%
[19]
  viability, T/C: 17.4%
[20]
  viability, T/C: 17.7%
Second compound 10 µM, first compound 0.00316 µM
  viability, T/C: 30%
Second compound 10 µM, first compound 0.01 µM
  viability, T/C: 21.8%
[21]
  viability, T/C: 12.6%
[22]
  viability, T/C: 14.6%
[23]
  viability, T/C: 16.5%
[24]
  viability, T/C: 17.6%
